71 compounds from patent publication US20140315886A1, “QUINAZOLINES AS THERAPEUTIC COMPOUNDS AND RELATED METHODS OF USE” (OTSUKA PHARMACEUTICAL CO., LTD., priority 2011, published 2014) can be followed below.

The structures appear in SMILES notation. pIC50: −log10 of the molar value.

The term pIC50 denotes −log10 of the IC50, conventionally taken in molar units.

This experiment has as its target T1, purified STEP46 enzyme (Homo sapiens, UniProt P54829).
T1 sequence (P54829 197-565 limits assumed): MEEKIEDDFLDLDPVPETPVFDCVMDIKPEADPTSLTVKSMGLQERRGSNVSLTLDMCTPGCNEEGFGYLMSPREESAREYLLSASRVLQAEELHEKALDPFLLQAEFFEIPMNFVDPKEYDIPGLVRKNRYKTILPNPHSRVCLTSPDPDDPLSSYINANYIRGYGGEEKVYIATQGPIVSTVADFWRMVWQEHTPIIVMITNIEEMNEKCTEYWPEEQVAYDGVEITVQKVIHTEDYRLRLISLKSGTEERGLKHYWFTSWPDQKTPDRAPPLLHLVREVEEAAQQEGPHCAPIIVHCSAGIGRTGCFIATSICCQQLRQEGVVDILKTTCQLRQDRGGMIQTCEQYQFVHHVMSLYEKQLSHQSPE
The experiment is described as follows: STEP46 biochemical assay (DiFMUP fluorescence phosphatase assay). As to conditions: DiFMUP 10 μM, read-out: STEP IC50. An outline of the steps: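 Purified human STEP46 preincubated 30 min at room temperature with compounds in Hepes/DTT/Brij35 buffer (2% DMSO final), then reacted with 10 μM DiFMUP for 90 min at 27°C; fluorescence read at 360/460 nm. IC50 from four-parameter fit; activation shown as negative % inhibition at 25, 50, 100 uM.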
As to `CNc1nc(-c2cccnc2)nc2c(C)c(-c3cc(F)c(F)cc3F)ccc12` [Compound 287], the pIC50 is less than 5.00.
On to `CNc1nc(-c2cccnc2)nc2c(C)c(-c3cc(F)cc(F)c3F)ccc12` [Compound 288], for which the pIC50 was 5.00 to 6.00.
With `CNc1nc(-c2cccnc2)nc2c(C)c(-c3cc(F)c(F)c(F)c3)ccc12` [Compound 289], the pIC50 is more than 6.00.
For the compound `Cc1c(-c2cccc(C#N)c2)ccc2c(N(C)C)nc(-c3cccnc3)nc12` [Compound 290], the negative-log IC50 (pIC50) is less than 5.00.
Turning to `Cc1c(-c2ccc(C#N)cc2)ccc2c(N(C)C)nc(-c3cccnc3)nc12` [Compound 291], the pIC50 is 5.00 to 6.00.
For the compound `Cc1c(-c2cc(F)c(F)c(F)c2)ccc2c(N(C)C)nc(-c3cccnc3)nc12` [Compound 292], the pIC50 was 5.00 to 6.00.
Consider `CNc1nc(-c2cccnc2)nc2c(C)c(-c3ccncc3)ccc12` [Compound 293], for which the pIC50 was 5.00 to 6.00.
In the case of `CNc1nc(-c2cccnc2)nc2c(C)c(-c3ccc(C)cc3)ccc12` [Compound 296], the negative-log IC50 (pIC50) is less than 5.00.
As to `CNc1nc(-c2cccnc2)nc2c(C)c(-c3ccccc3C)ccc12` [Compound 297], the pIC50 was less than 5.00.
Consider `CNc1nc(-c2cccnc2)nc2c(C)c(-c3ccc4c(cnn4C)c3)ccc12` [Compound 298], for which the pIC50 is more than 6.00.
Consider `CNc1nc(-c2cccnc2)nc2cc(C)c(-c3cccc(F)c3)cc12` [Compound 299], for which the pIC50 is 5.00 to 6.00.
As for `CNc1nc(-c2cccnc2)nc2cc(C)c(-c3ccc(F)c(F)c3F)cc12` [Compound 301], the negative-log IC50 (pIC50) is 5.00 to 6.00.
As for `CNc1nc(-c2cccnc2)nc2cc(C)c(-c3ccc(F)c(OC)c3)cc12` [Compound 304], the figure is less than 5.00; as for `CNc1nc(-c2cccnc2)nc2c(OC)cc(-c3cccc(Cl)c3)cc12` [Compound 305], 5.00 to 6.00; as for `CNc1nc(-c2cccnc2)nc2c(OC)cc(-c3ccccc3Cl)cc12` [Compound 306], 5.00 to 6.00.
For the compound `CNc1nc(-c2cccnc2)nc2c(OC)cc(-c3ccc(Cl)cc3)cc12` [Compound 307], the pIC50 is 5.00 to 6.00.
Regarding `CN(C)c1nc(-c2cccnc2)nc2ccc(-c3ccc(C4CC4)cc3)cc12` [Compound 308], the pIC50 is less than 5.00.
As to `Nc1nc(-c2cccnc2)nc2cc(-c3cc(F)c(F)c(F)c3)ccc12` [Compound 312], the pIC50 is 5.00 to 6.00.
For the compound `CN(C)c1nc(-c2cccnc2)nc2cc(-c3cc(F)c(F)c(F)c3)ccc12` [Compound 313], the pIC50 is 5.00 to 6.00.
Regarding `CN(C)CCCN(C)c1nc(-c2cccnc2)nc2cc(-c3cc(F)ccc3F)ccc12` [Compound 314], the pIC50 is less than 5.00.
As for `CNc1nc(-c2cccnc2)nc2cc(-c3cc(F)ccc3OC)ccc12` [Compound 316], the figure is 5.00 to 6.00; as for `CNc1nc(-c2cccnc2)nc2cc(-c3ccco3)ccc12` [Compound 317], less than 5.00.
Regarding `CNc1nc(-c2cccnc2)nc2cc(-c3ccoc3)ccc12` [Compound 318], the pIC50 was less than 5.00.
As for `CNc1nc(-c2cccnc2)nc2cc(-c3cccs3)ccc12` [Compound 319], the figure is 5.00 to 6.00; as for `CNc1nc(-c2cccnc2)nc2cc(-c3ccsc3)ccc12` [Compound 320], 5.00 to 6.00.
For the compound `CNc1nc(-c2cccnc2)nc2cc(-c3ccc(F)cc3C)ccc12` [Compound 321], the negative logarithm of the IC50 (pIC50) is 5.00 to 6.00.
For the compound `CNc1nc(-c2cccnc2)nc2cc(-c3ccc(F)cc3OC)ccc12` [Compound 322], the pIC50 was 5.00 to 6.00.
On to `CNc1nc(-c2cccnc2)nc2cc(-c3c(F)ccc(F)c3C)ccc12` [Compound 323], for which the pIC50 was less than 5.00.
`CNc1nc(-c2cccnc2)nc2cc(-c3cccc(F)c3C)ccc12` [Compound 324]: the pIC50 is 5.00 to 6.00.
Take `Fc1cc(F)cc(-c2ccc3nc(-c4ccnnc4)nc(NCc4ccccn4)c3c2)c1` [Compound 328]: the pIC50 was 5.00 to 6.00.
As for `Fc1ccc(-c2ccc3nc(-c4ccnnc4)nc(NCc4ccccn4)c3c2)c(F)c1` [Compound 329], the figure is 5.00 to 6.00; as for `Fc1cccc(-c2ccc3nc(-c4ccnnc4)nc(NCc4ccccn4)c3c2)c1F` [Compound 333], less than 5.00.
As for `Fc1cccc(-c2ccc3nc(-c4cccnc4)nc(NCCc4ccccn4)c3c2)c1` [Compound 336], the figure is 5.00 to 6.00.
Regarding `Fc1ccc(-c2ccc3nc(-c4cccnc4)nc(NCCc4ccccn4)c3c2)cc1` [Compound 337], the pIC50 is less than 5.00.
Take `Fc1ccc(F)c(-c2ccc3nc(-c4cccnc4)nc(NCCc4ccccn4)c3c2)c1` [Compound 339]: the pIC50 is 5.00 to 6.00.
Turning to `Fc1ccc(-c2ccc3c(NCCc4ccccn4)nc(-c4cccnc4)nc3c2)cc1` [Compound 340], the pIC50 is 5.00 to 6.00.
As for `Cn1ccc2c(-c3ccc4nc(-c5cccnc5)nc(NCc5ccccn5)c4c3)cccc21` [Compound 341], the figure is less than 5.00.
The value for `Cn1ccc2cc(-c3ccc4nc(-c5cccnc5)nc(NCc5ccccn5)c4c3)ccc21` [Compound 342] was more than 6.00; that for `c1ccc(CNc2nc(-c3cccnc3)nc3ccc(-c4cc5ccccc5o4)cc23)nc1` [Compound 343] was more than 6.00.
As for `COc1ccc(-c2ccc3nc(-c4cccnc4)nc(NCc4ccccn4)c3c2)cc1` [Compound 344], the pIC50 is 5.00 to 6.00.
In the case of `c1ccc(CCNc2nc(-c3cccnc3)nc3ccc(-c4cc5ccccc5o4)cc23)nc1` [Compound 345], the pIC50 is 5.00 to 6.00.
The value for `Cn1ccc2cc(-c3ccc4nc(-c5cccnc5)nc(NCCc5ccccn5)c4c3)ccc21` [Compound 346] was more than 6.00; that for `c1ccc(CNc2nc(-c3cccnc3)nc3cc(-c4cc5ccccc5o4)ccc23)nc1` [Compound 347] was 5.00 to 6.00.
As to `c1ccc(CNc2nc(-c3cccnc3)nc3ccc(-c4ccco4)cc23)nc1` [Compound 348], the pIC50 is 5.00 to 6.00.
`CC(Nc1nc(-c2cccnc2)nc2ccc(-c3cc(F)cc(F)c3)cc12)c1ccccc1` (centres unmarked) [Compound 349]: the pIC50 was 5.00 to 6.00.
As for `CC(Nc1nc(-c2cccnc2)nc2ccc(-c3ccc(F)c(F)c3)cc12)c1ccccc1` (centres unmarked) [Compound 350], the figure is 5.00 to 6.00; as for `Fc1ccc(CNc2nc(-c3cccnc3)nc3ccc(-c4cccc(F)c4F)cc23)cc1F` [Compound 361], less than 5.00.
The value for `CC(Nc1nc(-c2cccnc2)nc2ccc(-c3ccccc3F)cc12)c1ccccn1` (centres unmarked) [Compound 366] was 5.00 to 6.00; that for `CC(Nc1nc(-c2cccnc2)nc2cc(-c3cc(F)ccc3F)ccc12)c1ccccn1` (centres unmarked) [Compound 368] was 5.00 to 6.00.
Regarding `CC(Nc1nc(-c2cccnc2)nc2cc(-c3ccc(F)c(F)c3)ccc12)c1ccccn1` (centres unmarked) [Compound 369], the pIC50 was 5.00 to 6.00.
For `CC(Nc1nc(-c2cccnc2)nc2cc(-c3cc(F)cc(F)c3)ccc12)c1ccccn1` (centres unmarked) [Compound 370], the pIC50 is 5.00 to 6.00.
For the compound `CC(Nc1nc(-c2cccnc2)nc2cc(-c3ccccc3F)ccc12)c1ccccn1` (centres unmarked) [Compound 371], the negative logarithm of the IC50 (pIC50) is more than 6.00.
Turning to `Fc1cccc(-c2ccc3nc(-c4cccnc4)nc(NCc4ccccn4)c3c2)c1` [Compound 373], the pIC50 was less than 5.00.
On to `Fc1ccc(-c2ccc3nc(-c4cccnc4)nc(NCc4ccccn4)c3c2)cc1` [Compound 374], for which the pIC50 is 5.00 to 6.00.
With `[2H]C([2H])([2H])Nc1nc(-c2cccnc2)nc2cc(-c3cc(F)ccc3F)ccc12` [Compound 390], the pIC50 is 5.00 to 6.00.
`CNc1nc(-c2cnccn2)nc2cc(-c3ccccc3F)ccc12` [Compound 391]: the pIC50 is 5.00 to 6.00.
On to `CNc1nc(-c2cnccn2)nc2cc(-c3cccc(F)c3)ccc12` [Compound 392], for which the pIC50 is 5.00 to 6.00.
As for `CNc1nc(-c2cnccn2)nc2cc(-c3ccc(F)cc3)ccc12` [Compound 393], the pIC50 is 5.00 to 6.00.
As to `CNc1nc(-c2cnccn2)nc2cc(-c3ccc(F)cc3F)ccc12` [Compound 395], the pIC50 was 5.00 to 6.00.
Regarding `CNc1nc(-c2cnccn2)nc2cc(-c3cc(F)ccc3F)ccc12` [Compound 396], the pIC50 was 5.00 to 6.00.
With `CNc1nc(-c2cnccn2)nc2cc(-c3ccc(F)c(F)c3)ccc12` [Compound 397], the pIC50 is 5.00 to 6.00.
Regarding `CNc1nc(-c2cnccn2)nc2cc(-c3cc(F)cc(F)c3)ccc12` [Compound 398], the pIC50 was 5.00 to 6.00.
As for `CNc1nc(-c2cccnc2)nc2cc(OC(F)(F)F)c(-c3cccc(F)c3F)cc12` [Compound 404], the pIC50 is 5.00 to 6.00.
Turning to `FCCNc1nc(-c2cccnc2)nc2ccc(-c3cccc(F)c3F)cc12` [Compound 406], the pIC50 was less than 5.00.
As for `Fc1ccc(-c2ccc3nc(-c4cccnc4)nc(N4CCC4)c3c2)c(F)c1` [Compound 411], the pIC50 was 5.00 to 6.00.
As for `COC1CN(c2nc(-c3cccnc3)nc3ccc(-c4ccc(F)cc4F)cc23)C1` [Compound 413], the figure is 5.00 to 6.00.
The value for `Fc1ccc(-c2ccc3nc(-c4cccnc4)nc(N4CC(F)(F)C4)c3c2)c(F)c1` [Compound 415] was less than 5.00; that for `Fc1ccc(-c2ccc3nc(-c4cccnc4)nc(-c4nccs4)c3c2)c(F)c1` [Compound 416] was more than 6.00; that for `Fc1ccc(-c2ccc3nc(-c4cccnc4)nc(-c4cncs4)c3c2)c(F)c1` [Compound 417] was more than 6.00.
As to `NC(=O)C1CN(c2nc(-c3cccnc3)nc3ccc(-c4ccc(F)cc4F)cc23)C1` [Compound 419], the pIC50 was 5.00 to 6.00.
Take `Fc1ccc(-c2ccc3nc(-c4cccnc4)nc(N4CC(n5cccn5)C4)c3c2)c(F)c1` [Compound 420]: the pIC50 was less than 5.00.
